# Laboratory results: patent US8637237B2, “Methods, compositions, and systems for the identification of species-specific or developmental stage-specific insecticides” (The University of North Carolina at Greensboro, priority 2003, dated 2014)
# How the values were obtained:
# EcRB1/RXR = target: T1, EcRB1/RXR (Drosophila melanogaster, UniProt P34021); experiment: EcRB1 isoform with RXR, reporter in CHO cells; assay type: cell-based
# T1 construct: The plasmid encodes a version of EcRB1 that includes 878 amino acids, and deletes the F domain; expressed in transfected cells; host or cells: CHO
# Experimental: (§1) These experiments employed a mammalian cell culture system using Chinese hamster ovary cells (CHO) to evaluate the transcriptional function of Drosophila melanogaster EcR and USP using methods described previously (U.S. Patent Application Publication No: 2005/0049230; Henrich et al, 2003). Cells were seeded in 6-well polypropylene culture plates (Falcon) with 10^5 cells per well on the day prior to transfection. Transfection was subsequently performed using either calcium phosphate (Kitareewan et al., 1996, Mol. Biol. Cell, 7:1153-1196) or a GenePorter reagent (Gene Therapy Systems, Inc; San Diego, Calif.) following manufacturer's protocols. Each well received 1.25 μg of (EcRE)5-ΔMTV-CAT (five copies of the hsp27 EcRE inserted into an mouse mammary tumor virus (MTV) promoter upstream of the chloramphenicol acetyltransferase (CAT) gene) or (EcRE)5-ΔMTV-LUC (the same promoter attached to firefly luciferase), 1.25 μg of pCH111 (SV40 early promoter linked to the β-galactosidase gene) to normalize CAT activity, and 0.25 μg of each expression plasmid (EcR, FXR, RXR, USP) that was tested. […] Both β-galactosidase and CAT reporter activity were measured based on previously used methods (Kitareewan et al, 1996). […]
# (§2) Transcriptional activity, measured as ^14C-chloramphenicol counts (for measuring CAT activity) or relative luciferase activity (RLU) was quantified for each cell lysate. […]
# EcRB1/DmUSPF2 = target: T2, EcRB1/DmUSPF2 (Drosophila melanogaster, UniProt P34021); experiment: Drosophila EcRB1 with Drosophila USPF2, luciferase reporter in mammalian cells (FIG. 6); assay type: cell-based; details: for increase of the effect of 0.1 μM murA: with 0.1 μM murA
# T2 construct: The plasmid encodes a version of EcRB1 that includes 878 amino acids, and deletes the F domain; expressed in transfected cells; host or cells: CHO (mammalian cells)
# T2 sequence (P34021 1-878): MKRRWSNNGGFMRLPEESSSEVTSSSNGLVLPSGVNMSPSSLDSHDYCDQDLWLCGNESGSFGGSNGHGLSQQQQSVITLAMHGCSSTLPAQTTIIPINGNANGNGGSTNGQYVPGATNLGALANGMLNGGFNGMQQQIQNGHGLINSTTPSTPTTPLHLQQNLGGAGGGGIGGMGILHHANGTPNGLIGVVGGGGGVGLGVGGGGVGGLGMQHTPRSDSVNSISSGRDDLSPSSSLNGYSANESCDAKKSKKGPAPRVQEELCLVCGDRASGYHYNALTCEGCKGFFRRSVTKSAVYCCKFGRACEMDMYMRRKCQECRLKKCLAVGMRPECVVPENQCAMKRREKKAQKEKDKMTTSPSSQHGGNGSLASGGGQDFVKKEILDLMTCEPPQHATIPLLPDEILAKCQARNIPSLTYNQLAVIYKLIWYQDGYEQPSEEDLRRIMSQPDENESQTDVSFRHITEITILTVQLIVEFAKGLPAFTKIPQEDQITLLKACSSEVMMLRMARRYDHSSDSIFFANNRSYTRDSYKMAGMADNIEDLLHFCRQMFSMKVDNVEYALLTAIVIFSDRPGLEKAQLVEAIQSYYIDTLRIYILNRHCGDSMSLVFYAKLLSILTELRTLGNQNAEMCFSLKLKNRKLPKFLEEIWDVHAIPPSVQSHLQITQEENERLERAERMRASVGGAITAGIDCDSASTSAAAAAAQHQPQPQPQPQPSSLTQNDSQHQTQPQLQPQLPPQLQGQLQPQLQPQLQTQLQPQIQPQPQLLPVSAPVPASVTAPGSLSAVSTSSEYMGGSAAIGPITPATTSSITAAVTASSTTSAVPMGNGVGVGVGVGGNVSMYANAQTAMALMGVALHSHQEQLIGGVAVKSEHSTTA
# T2 sequence (P20153 104-507 partner limits assumed): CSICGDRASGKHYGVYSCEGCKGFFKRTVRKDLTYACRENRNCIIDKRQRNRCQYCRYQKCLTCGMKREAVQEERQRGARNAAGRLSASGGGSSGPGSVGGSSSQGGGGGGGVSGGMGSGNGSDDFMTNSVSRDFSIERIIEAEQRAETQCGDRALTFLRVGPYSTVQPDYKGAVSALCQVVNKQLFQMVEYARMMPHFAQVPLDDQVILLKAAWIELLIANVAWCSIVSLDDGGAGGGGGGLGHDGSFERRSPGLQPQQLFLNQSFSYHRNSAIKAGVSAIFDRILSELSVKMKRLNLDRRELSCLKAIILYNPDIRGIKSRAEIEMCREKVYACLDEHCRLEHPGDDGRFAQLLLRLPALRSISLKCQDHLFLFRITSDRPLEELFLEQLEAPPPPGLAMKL
# Experimental: Unless noted otherwise, 100 ng of each EcR and USP plasmid was transfected into 2 ml of cell culture medium. As noted above, a reporter gene carrying five tandem copies of the hsp27 ecdysone response element (Riddihough and Pelham, 1986) is attached to a constitutive thymidine kinase promoter and a luciferase reporter gene (pEcREtk-LUC) and cotransfected into the cells along with vectors expressing EcR, USP, and a constitutively active β-galactosidase gene with lipofection, following manufacturer's protocols. The subsequent measure of luciferase activity reflects ecdysteroid-inducible transcription.
# The Drosophila EcR isoform vectors (A, B1, and B2) used for these experiments have been described previously (Mouillet et al, 2001). These vectors lack the F-domain, which is also not essential for in vivo function (Cherbas et al, 2003). Additionally, three different VP16-USP vectors were utilized. Construction is of the VP16-USP vectors is described below. As in the earlier study, hsp27-EcRE mediated transcriptional activity was measured by detecting the luminescence produced by luciferase in transfected cell extracts. Luciferase activity was normalized by transfection with a plasmid that constitutively expresses the β-galactosidase gene such that enzymatic activity correlated with cellular mass.
# After a 4 hour transfection period, the hormone treatment was applied by diluting stock solutions of muristerone A (murA; Alexis Corporation, San Diego, Calif.), JHI (Scitech), JHIII (Sigma, St Louis, Mo.), and/or 20E (Sigma, St Louis, Mo.) in DMSO. The cells were harvested 24 hours after treatment and the contents of the cells extracted for performing the luciferase and β-galactosidase assays.
# VP16dEcR/USP = target: T3, VP16dEcR/USP (Drosophila melanogaster, UniProt P34021); experiment: VP16dEcR with USP (VP16CfUSP), reporter in CHO cells; assay type: cell-based
# T3 construct: expressed in transfected cells; host or cells: CHO
# T3 sequence (O76202 212-462 partner limits assumed, one chain of several): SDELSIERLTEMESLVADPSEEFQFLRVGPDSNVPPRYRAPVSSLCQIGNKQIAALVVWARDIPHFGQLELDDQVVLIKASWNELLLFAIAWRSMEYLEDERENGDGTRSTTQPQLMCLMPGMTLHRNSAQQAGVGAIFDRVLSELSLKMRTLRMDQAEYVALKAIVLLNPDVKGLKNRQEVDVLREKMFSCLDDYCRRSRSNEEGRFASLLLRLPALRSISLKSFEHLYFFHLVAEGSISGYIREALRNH
# Experimental: as §1, §2
# insect = details: from Schneiderman and Gilbert, Science 143; cited from earlier work
compound,measurement,setting,value
"COC(=O)/C=C(\C)CC/C=C(\C)CC[C@H]1OC1(C)C [JHIII, juvenile hormone III]",MurA + JHIII (JHIII potentiation),EcRB1/RXR; 0.1 μM murA + 80 μM JHIII,+ ((+) indicates observed potentiation that exceeds 2-fold above the levels observed with ecdysteroid alone)
same,increase of the effect of 0.1 μM murA,EcRB1/DmUSPF2,increased
same,MurA + JHIII (JHIII potentiation),VP16dEcR/USP; 0.1 μM murA + 80 μM JHIII,+ ((+) indicates observed potentiation that exceeds 2-fold above the levels observed with ecdysteroid alone)
CC(C)=CCCC(C)=CCCC(C)=CC(=O)O [farnesoic acid],increase of the effect of 0.1 μM murA,EcRB1/DmUSPF2,increased
same,JH ACTIVITY (units/g),insect,7.8 units/g
COC(=O)/C=C(\C)CC/C=C(\C)CCC=C(C)C [methyl farnesoate],increase of the effect of 0.1 μM murA,EcRB1/DmUSPF2,increased
"CC(C)CC[C@@H](O)[C@](C)(O)[C@H]1CC[C@@]2(O)C3=CC(=O)[C@]4(O)C[C@@H](O)[C@@H](O)C[C@]4(C)[C@H]3[C@H](O)C[C@]12C [murA, muristerone A]",MurA (inducibility),EcRB1/RXR; 0.1 μM murA,+ ((+) designates a change in transcriptional level that exceeds 2.5-fold)
same,stimulation of EcRB1/USPF2 complex,EcRB1/DmUSPF2; 0.1 μM and 1.0 μM murA,stimulated
same,MurA (inducibility),VP16dEcR/USP; 0.1 μM murA,+ ((+) designates a change in transcriptional level that exceeds 2.5-fold)
